Common to all, as to details: 72 h
The test system of assay [1] is CAL-120. A digest of the protocol: (§1)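 The plates used were 384-well plates holding compound at 5 concentrations in 10-fold steps across a compound-specific 10,000-fold range, into which breast cancer cell lines were seeded in 20 µl suspension. Following 72 h incubation, CellTox Green fluorescence was read at 485/520 nm, and CellTiter-Glo luminescence was read after 10 min at room temperature. Normalisation on each plate used 0.1 % DMSO and a positive kill control. Dose-response curves gave the EC50, which was censored at the top concentration.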

Assay [2] deals with Hs578T. A digest of the protocol: (§2)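 After 72 h on 384-well plates pre-loaded with compound in 5 µl medium, breast cancer cell lines seeded in 20 µl were assayed for viability with 2.5 µl CellTiter-Blue at 37 °C for 2 h, read at 560/590 nm. Each plate was quality-checked by Z'-factor and normalised to vehicle and a positive kill control. EC50 comes from the fitted percent-inhibition dose-response curve, censored at the top concentration, and rows scoring zero for drug sensitivity were left out.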

In assay [3] the test system is CAL-120. A digest of the protocol:
as §2
This is another data set of the same source.

Assay [4] deals with MDA-MB-436. A digest of the protocol:
as §2

Assay [5] relates to HCC1143. A digest of the protocol: as §2
Assay [6] relates to HCC1937. A digest of the protocol:
as §2

The test system of assay [7] is MDA-MB-231. A digest of the protocol: as §2
The subject of assay [8] is BT-549. Summed up:
as §2

The subject of another assay is CAL-51. A digest of the protocol: as §2
Assay [9] has as its system MDA-MB-436. A digest of the protocol:
as §1
This is another data set of the same source.

Assay [10] relates to CAL-148. A digest of the protocol:
as §1

Assay [11] deals with HCC1599. A digest of the protocol: as §1
For assay [12], the system named is MFM-223. Summed up: as §2
In the next assay the test system is SK-BR-3. Summed up:
as §2

Assay [13] has as its system MDA-MB-468. A digest of the protocol: as §2
The test system of assay [14] is HCC1599. Summed up:
as §2
This is another data set of the same source.

The subject of assay [15] is BT-474. A digest of the protocol:
as §2

Assay [16] has as its system DU-4475. A digest of the protocol: as §2
The subject of assay [17] is MDA-MB-453. Summed up: as §2
Assay [18] concerns CAL-85-1. Summed up: as §2
The subject of assay [19] is HDQ-P1. A digest of the protocol: as §2
Assay [20] relates to CAL-148. A digest of the protocol: as §2
This is another data set of the same source.

The test system of assay [21] is MFM-223. A digest of the protocol:
as §1
The source holds these as a separate data set.

Assay [22] relates to Hs578T. Summed up: as §1
This is another data set of the same source.

In assay [23] the test system is CAL-85-1. Summed up:
as §1
The source holds these as a separate data set.

Assay [24] concerns HDQ-P1. Summed up: as §1
This is another data set of the same source.

The subject of a further assay is MCF-10A. Summed up:
as §1

Assay [25] has as its system HCC1937. A digest of the protocol: as §1
The source holds these as a separate data set.

For assay [26], the system named is MDA-MB-231. A digest of the protocol:
as §1
This is another data set of the same source.

The subject of assay [27] is MDA-MB-468. Summed up: as §1
The source holds these as a separate data set.

Assay [28] relates to BT-549. Summed up: as §1
The source holds these as a separate data set.

For assay [29], the system named is BT-474. A digest of the protocol:
as §1
This is another data set of the same source.

Assay [30] relates to DU-4475. A digest of the protocol:
as §1
This is another data set of the same source.

The subject of assay [31] is MDA-MB-453. A digest of the protocol: as §1
The source holds these as a separate data set.

The test system of assay [32] is HCC1599. Summed up: as §1
This is another data set of the same source.

The test system of assay [33] is HCC1143. Summed up: as §1
The source holds these as a separate data set.

`CC(C)(C)Cn1c(N)nc2ccc(-c3[nH]c(C(C)(C)C)nc3-c3ccc(F)cc3)nc21`: the “EC50, CellTox Green” value in the assay on CAL-120 [1] was > 10000 nM.
Consider `Cc1c(N)nc([C@H](CC(N)=O)NC[C@H](N)C(N)=O)nc1C(=O)N[C@H](C(=O)N[C@H](C)[C@@H](O)[C@H](C)C(=O)N[C@H](C(=O)NCCc1nc(-c2nc(C(=O)NCCC[S+](C)C)cs2)cs1)[C@@H](C)O)[C@@H](OC1OC(CO)C(O)C(O)C1OC1OC(CO)C(O)C(OC(N)=O)C1O)c1cnc[nH]1` (stereo not given in full) [Bleomycin], for which the “EC50, CellTiter-Blue viability” value in the assay with Hs578T [2] is 69.2 nM; with CAL-120 [3] it was 582 nM; in the assay with MDA-MB-436 [4], 7330 nM; in the assay on HCC1143 [5], 201 nM; in the assay on HCC1937 [6], 767 nM; in the assay on MDA-MB-231 [7], 109 nM. Also, the “EC50, CellTiter-Blue viability” value came out at 16.4 nM in the assay with BT-549 [8] and 9960 nM in the assay on CAL-51. Besides, the “EC50, CellTox Green” value stood at 7500 nM in the assay on MDA-MB-436 [9] and 396 nM with CAL-148 [10].
For `CC(C)C[C@H](NC(=O)[C@H](CCc1ccccc1)NC(=O)CN1CCOCC1)C(=O)N[C@@H](Cc1ccccc1)C(=O)N[C@@H](CC(C)C)C(=O)[C@@]1(C)CO1` [Carfilzomib], the “EC50, CellTiter-Glo” value with HCC1599 [11] turned out to be 96.1 nM. In addition, the “EC50, CellTiter-Blue viability” value was found to be 1.94 nM in the assay on MFM-223 [12]; 5.47 nM in the assay with Hs578T [2]; 5.45 nM with SK-BR-3; 9.07 nM with CAL-120 [3]; 14.3 nM in the assay on MDA-MB-436 [4]; 8.47 nM with HCC1143 [5]. Also, the “EC50, CellTiter-Blue viability” value in the assay with HCC1937 [6] stood at 2.21 nM; in the assay with MDA-MB-231 [7], 6.44 nM; with MDA-MB-468 [13], 5.66 nM; in the assay on HCC1599 [14], 88.6 nM; in the assay on BT-549 [8], 2.78 nM; in the assay with BT-474 [15], 26.9 nM. In addition, the “EC50, CellTiter-Blue viability” value with CAL-51 was determined as 20.2 nM; with DU-4475 [16] it was 12.2 nM; in the assay on MDA-MB-453 [17], 2.22 nM; in the assay with CAL-85-1 [18], 13.6 nM; in the assay on HDQ-P1 [19], 10.9 nM; in the assay with CAL-148 [20], 25.8 nM. The “EC50, CellTox Green” value was 8.42 nM in the assay with MFM-223 [21]; 31.9 nM in the assay on Hs578T [22]; 9 nM in the assay with CAL-85-1 [23]; 25.1 nM with HDQ-P1 [24]; 136 nM with MCF-10A; 34.6 nM in the assay on CAL-120 [1]. The “EC50, CellTox Green” value with MDA-MB-436 [9] was 6.94 nM; with CAL-148 [10], 16.1 nM; with HCC1937 [25], 6.49 nM; with MDA-MB-231 [26] it was 10.2 nM; in the assay on MDA-MB-468 [27], 0.78 nM; in the assay on BT-549 [28], 11.4 nM. Further, the “EC50, CellTox Green” value with BT-474 [29] turned out to be 60.2 nM.
As for `Nc1nc(Cl)nc2c1ncn2[C@@H]1O[C@H](CO)[C@@H](O)[C@@H]1F` [Clofarabine], in the assay on HCC1599 [11], the “EC50, CellTiter-Glo” value worked out at 1740 nM. Further, the “EC50, CellTiter-Blue viability” value stood at 149 nM in the assay with Hs578T [2]; 90.6 nM in the assay on SK-BR-3; 116 nM in the assay with CAL-120 [3]; 104 nM in the assay on MDA-MB-436 [4]; 118 nM in the assay with HCC1143 [5]; 180 nM in the assay with HCC1937 [6]. Besides, the “EC50, CellTiter-Blue viability” value in the assay on MDA-MB-231 [7] came to 20.5 nM; with MDA-MB-468 [13] it was 453 nM; in the assay with HCC1599 [14], 2220 nM; in the assay on BT-549 [8], 340 nM; with CAL-51, 870 nM; with DU-4475 [16] it was 472 nM. Also, the “EC50, CellTiter-Blue viability” value in the assay with MDA-MB-453 [17] came out at 484 nM; in the assay on CAL-85-1 [18] it was 152 nM; in the assay with CAL-148 [20] it was 563 nM. The entries for the “EC50, CellTox Green” value with CAL-85-1 [23], in the assay on CAL-148 [10] and in the assay with MDA-MB-468 [27] were 1420 nM, 169 nM and > 10000 nM, respectively.
Consider `CCN(CC)CCOc1ccc(C(=C(Cl)c2ccccc2)c2ccccc2)cc1` [Clomifene], for which the “EC50, CellTiter-Glo” value in the assay with HCC1599 [11] was determined as 2830 nM. Further, the “EC50, CellTiter-Blue viability” value in the assay on MFM-223 [12] was found to be 6930 nM; with CAL-120 [3], 4600 nM; in the assay on MDA-MB-436 [4] it was 6850 nM; in the assay with HCC1937 [6] it was 9530 nM; in the assay with MDA-MB-231 [7] it was 2830 nM; in the assay with MDA-MB-468 [13] it was 3630 nM. Also, the “EC50, CellTiter-Blue viability” value in the assay with BT-549 [8] is 3250 nM; in the assay on BT-474 [15], 5530 nM; with DU-4475 [16] it was 7320 nM; with MDA-MB-453 [17], 4990 nM; in the assay with CAL-85-1 [18], 9270 nM; in the assay on HDQ-P1 [19], 9480 nM. The “EC50, CellTox Green” value worked out at 522 nM in the assay with MFM-223 [21]; 2260 nM in the assay with Hs578T [22]; 5820 nM with DU-4475 [30]; 5670 nM with MDA-MB-453 [31]; 6280 nM in the assay on CAL-85-1 [23]; 1010 nM in the assay with MCF-10A. For the same molecule, the “EC50, CellTox Green” value in the assay with HCC1937 [25] was found to be 1760 nM; in the assay with MDA-MB-231 [26] it was 1990 nM; with HCC1599 [32], 9780 nM; in the assay with BT-474 [29] it was 3470 nM.
As for `CCc1cnn2c(NCc3ccc[n+]([O-])c3)cc(N3CCCC[C@H]3CCO)nc12` [Dinaciclib], the “EC50, CellTiter-Glo” value with HCC1599 [11] came out at 14.8 nM. For the same molecule, the “EC50, CellTox Green” value in the assay on MFM-223 [21] turned out to be 22 nM; in the assay on Hs578T [22], 26.4 nM; with CAL-85-1 [23] it was 22 nM; in the assay on HDQ-P1 [24] it was 8.27 nM; in the assay on MCF-10A, 77.4 nM; with CAL-148 [10], 28.3 nM. The “EC50, CellTox Green” value in the assay with MDA-MB-231 [26] amounted to 8.07 nM; in the assay with MDA-MB-468 [27] it was 17.1 nM; in the assay on HCC1599 [32] it was 14.1 nM; in the assay with BT-474 [29], 13.2 nM.
Turning to `COc1cc2c(Oc3ccc(NC(=O)C4(C(=O)Nc5ccc(F)cc5)CC4)cc3F)ccnc2cc1OCCCN1CCOCC1` [Foretinib], the “EC50, CellTiter-Blue viability” value was 62.5 nM in the assay on MFM-223 [12]; 756 nM with Hs578T [2]; > 1000 nM in the assay on SK-BR-3; 787 nM in the assay with CAL-120 [3]; 13.8 nM in the assay on MDA-MB-436 [4]; 473 nM in the assay on CAL-51. In addition, the “EC50, CellTiter-Blue viability” value amounted to 748 nM with DU-4475 [16], 157 nM with HDQ-P1 [19] and 675 nM in the assay on CAL-148 [20]. The “EC50, CellTox Green” value in the assay with CAL-148 [10] came to 712 nM; with HCC1143 [33], 693 nM; in the assay with MDA-MB-231 [26] it was 129 nM; with MDA-MB-468 [27], 374 nM.
With `COc1cc(Nc2ncc(F)c(Nc3ccc4c(n3)N(COP(=O)(O)O)C(=O)C(C)(C)O4)n2)cc(OC)c1OC` [Fostamatinib], the “EC50, CellTox Green” value turned out to be 1080 nM in the assay on Hs578T [22], 725 nM in the assay on CAL-85-1 [23], 267 nM with MDA-MB-231 [26] and 1.6 nM with BT-549 [28].
As for `CCCc1cc(C)[nH]c(=O)c1CNC(=O)c1cc(-c2ccnc(N3CCN(C)CC3)c2)cc2c1cnn2C(C)C` [GSK343], the “EC50, CellTiter-Glo” value in the assay with HCC1599 [11] was determined as 5170 nM. Also, the “EC50, CellTox Green” value in the assay with MFM-223 [21] is 227 nM; with MDA-MB-453 [31], 2680 nM; with CAL-85-1 [23], 3440 nM; in the assay with MDA-MB-231 [26], 2280 nM; with HCC1599 [32], > 10000 nM; in the assay on BT-474 [29], 3370 nM.

Values taken from the supplement of paper PMC4862054.
